The test system of this data set is methylated gene promoters in fecal DNA. The data set can be described thus: Real-time MSP on stool (fecal) DNA. As to conditions: fecal samples; for Sens adenoma: 13 samples; for Sens CRC: 15 samples; for Spec: 19 samples. Details: species or system human. An excerpt: A standardized multicenter screening trial (The Netherlands) was initiated in 2006. In this trial, non symptomatic subjects aged 50 or above are screened with colonoscopy, FOBT and real-time MSP using DNA from stool and blood. In addition, prospectively collected stool samples from multiple centers (Germany and The Netherlands) were used. In these trials, symptomatic patients, attending a Gastroenterology clinic and ultimately diagnosed with CRC, provided a stool sample for use in real-time MSP. From the ongoing trials 147 stool samples were available for the present study. 3 main categories of stool samples were used: 67 samples with no suspicious findings, 58 adenomas and 22 samples from patients covering all stages of CRC, with 90% representing early stage disease.
After defecation in a special bucket, patients added 250 ml of stool homogenization buffer (Amresco, Solon, Ohio, USA) to the sample. Samples were shipped to the laboratory and further processed within 72 hours after defecation. Stool homogenization buffer was added to a ratio 1:7, and the samples were homogenized and aliquoted in portions of 32 ml.
Single aliquots (32 ml containing the equivalent of 4 g of stool) were centrifuged for 5 minutes at 2540 rcf at 20° C. The supernatant was retained and centrifuged a second time (10 minutes at 16500 rcf at 4° C.). 22 ml of the supernatant obtained following the second centrifugation step was incubated with 5 μl Rnase A for 60 minutes at 37° C. Total DNA was then SodiumAcetate (pH 5.2)-isopropanol precipitated and washed with 70% ethanol. The DNA was resuspended in 4 ml 1×TE (pH 7.4). 400 μl 10× buffer (240 mM EDTA (pH=8.0), 750 mM NaC), 400 μl 10% SDS, and 20 μl Proteinase K (20 mg/ml) was added and the samples were incubated at 48° C. overnight at constant shaking (225 RPM). After centrifugation (3000 RCF for 30 seconds at room temperature), 5 ml of Phenol:Chloroform:Isoamylalcohol (25:24:1, v/v:Invitrogen) was added and incubated for 10 minutes at room temperature shaking at 225 RPM and centrifuged for 5 minutes at 3000 RCF. The aqueous layer was transferred to a new tube containing 5 ml of Phenol:Chloroform:Isoamylalcohol. Again, the samples were incubated for 10 minutes at room temperature shaking at 225 RPM and centrifuged for 5 minutes at 3000 RCF at room temperature. The aqueous layer was transferred to a new tube and DNA was precipitated by adding 500 μl 7.5 M Ammonium Acetate, 5 μl glycogen and 10 ml of cold 100% Ethanol (−20° C.), further incubated at −20° C. for at least 1 hour and centrifuged at 15000 RCF for 30 minutes at 4° C. Pellets were washed with 3.5 ml freshly prepared 70% Ethanol and air dried. Pellets were finally resuspended in 2 ml of LoTE pH 8.0 and stored at −80° C., until further processing.
An upscaled DNA modification step was applied to 32 μg of the obtained DNA. 16 Aliquots of 2 μg of DNA were subjected to bisulfite modification in 96-wells format on a pipetting robot (Tecan), using the EZ-96DNA Methylation kit (Zymo Research), according to the manufacturer's protocol. Basically, aliquots of 45 μl were mixed with 5 μl of M-Dilution Buffer and incubated at 37° C. for 15 minutes shaking at 1100 rpm. Then 100 μl of the diluted CT Conversion Reagent was added and samples were incubated at 70° C. for 3 hours, shaking at 1100 rpm in the dark. After conversion, the samples were desalted by incubation on ice for 10 minutes and addition of 400 μl of M-Binding buffer. The samples were loaded on a Zymo-Spin I Column in a collection tube and after centrifugation washed with 200 μl of M-Wash Buffer. 200 μl of M-Desulphonation Buffer was put onto the column and incubated at room temperature for 15 minutes. After centrifugation of the columns, they were washed twice with 200 μl of M-Wash Buffer. Finally, the DNA was washed from the column in 50 μl Tris-HCl 1 mM pH8.0 and stored at −80° C., until further processing.

This note sets out measurements from patent US12215389B2, “Compositions for detecting epigenetic modifications” (EXACT SCIENCES CORPORATION, priority 2007, dated 2025).

On to “SFRP1 (DNA TGTAGTTTTCGGAGTTAGTGTCGCGC; listed as DNA, chemistry not given here)”, for which the Sens adenoma was 8%, the “Sens CRC” value is 67% and the Spec was 100%.

As for “GATA5 (DNA AGTTCGTTTTTAGGTTAGTTTTCGGC; listed as DNA, chemistry not given here)”, the Sens adenoma is 0%, the “Sens CRC” value turned out to be 27% and the Spec amounted to 100%.
